Data as given in ChEMBL document CHEMBL1137846, “Estrogen receptor ligands. Part 7: Dihydrobenzoxathiin SERAMs with bicyclic amine side chains” (Bioorg Med Chem Lett, 2004).

How the values were obtained:
MCF7 = test: cells; conditions: Homo sapiens
Estrogen receptor = target: T1, Estrogen receptor (Homo sapiens, UniProt P03372)
T1 sequence (P03372 whole entry): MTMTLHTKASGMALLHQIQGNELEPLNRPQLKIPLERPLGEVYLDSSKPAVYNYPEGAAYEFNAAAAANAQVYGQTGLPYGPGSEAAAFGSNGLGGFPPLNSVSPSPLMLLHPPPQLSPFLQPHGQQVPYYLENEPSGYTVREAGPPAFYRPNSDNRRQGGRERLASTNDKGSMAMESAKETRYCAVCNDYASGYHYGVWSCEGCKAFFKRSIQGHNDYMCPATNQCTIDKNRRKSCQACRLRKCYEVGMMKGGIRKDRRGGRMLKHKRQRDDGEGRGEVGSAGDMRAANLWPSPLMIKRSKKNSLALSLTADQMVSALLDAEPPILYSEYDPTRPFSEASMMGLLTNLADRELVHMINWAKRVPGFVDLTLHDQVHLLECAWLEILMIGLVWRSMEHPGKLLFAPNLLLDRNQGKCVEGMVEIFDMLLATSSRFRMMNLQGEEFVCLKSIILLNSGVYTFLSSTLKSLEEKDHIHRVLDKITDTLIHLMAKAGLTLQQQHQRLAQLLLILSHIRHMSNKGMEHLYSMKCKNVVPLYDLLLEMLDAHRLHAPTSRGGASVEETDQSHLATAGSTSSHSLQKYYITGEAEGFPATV
Description: Binding potency for human ER alpha

Estrogen receptor beta = Estrogen receptor beta (Homo sapiens, UniProt Q92731)
Sequence of Estrogen receptor beta (Q92731 whole entry): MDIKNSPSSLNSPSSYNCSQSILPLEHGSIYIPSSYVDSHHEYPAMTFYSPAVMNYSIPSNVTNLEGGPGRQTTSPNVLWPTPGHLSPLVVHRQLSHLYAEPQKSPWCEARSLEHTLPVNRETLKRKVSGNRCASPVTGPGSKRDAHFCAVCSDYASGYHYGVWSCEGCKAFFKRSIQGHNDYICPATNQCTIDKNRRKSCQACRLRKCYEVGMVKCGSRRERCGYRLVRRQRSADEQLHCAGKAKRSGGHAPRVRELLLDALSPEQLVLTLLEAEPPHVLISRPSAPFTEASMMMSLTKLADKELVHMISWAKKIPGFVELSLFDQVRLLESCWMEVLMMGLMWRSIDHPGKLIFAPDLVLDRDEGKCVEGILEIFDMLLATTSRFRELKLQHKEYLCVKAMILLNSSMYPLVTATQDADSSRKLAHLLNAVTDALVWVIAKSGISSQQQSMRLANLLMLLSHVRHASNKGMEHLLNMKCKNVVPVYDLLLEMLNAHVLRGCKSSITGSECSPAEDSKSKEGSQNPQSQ
Description: Binding potency for human ER beta

`Oc1ccc([C@H]2Sc3cc(O)ccc3O[C@H]2c2ccc(OCCN3C4CCC3CC4)cc2)cc1` gave an IC50 (MCF7) of 3.6 nM, an IC50 (Estrogen receptor) of 0.9 nM and an IC50 (Estrogen receptor beta) of 118 nM.

`Oc1ccc([C@H]2Sc3cc(O)ccc3O[C@H]2c2ccc(OCCN3CC4CCC4C3)cc2)cc1` (some centres not stated) was tested, and the IC50 (MCF7) was 2.5 nM, the IC50 (Estrogen receptor) was 0.8 nM and the IC50 (Estrogen receptor beta) was 85 nM.

With `Oc1ccc([C@H]2Sc3cc(O)ccc3O[C@H]2c2ccc(OCCN3CC[C@H]4C[C@H]43)cc2)cc1` the IC50 (MCF7) was 0.4 nM and the IC50 (Estrogen receptor beta) was 33 nM.

In the case of `Oc1ccc([C@H]2Sc3cc(O)ccc3O[C@H]2c2ccc(OCCN3CC4CC5CC(C4)CC3C5)cc2)cc1`, the IC50 (MCF7) is reported as 5.8 nM, the IC50 (Estrogen receptor) is reported as 0.6 nM and the IC50 (Estrogen receptor beta) is reported as 40 nM.

For `Oc1ccc([C@H]2Sc3cc(O)ccc3O[C@H]2c2ccc(OCCN3CC4CC3CO4)cc2)cc1` (some centres not stated), the IC50 (MCF7) was 3.3 nM, the IC50 (Estrogen receptor) was 0.7 nM and the IC50 (Estrogen receptor beta) was 73 nM.

Work on `Oc1ccc([C@H]2Sc3cc(O)ccc3O[C@H]2c2ccc(OCCN3CCC4(CCCC4)CC3)cc2)cc1` yielded an IC50 (MCF7) of 29.8 nM, an IC50 (Estrogen receptor) of 1.2 nM and an IC50 (Estrogen receptor beta) of 39 nM.

With `Oc1ccc([C@H]2Sc3cc(O)ccc3O[C@H]2c2ccc(OCCN3CC4CCC3CC4)cc2)cc1` the IC50 (MCF7) was 1.6 nM, the IC50 (Estrogen receptor) was 1.3 nM and the IC50 (Estrogen receptor beta) was 52 nM.

`Oc1ccc([C@H]2Sc3cc(O)ccc3O[C@H]2c2ccc(OCCN3CC[C@@H]4CC43)cc2)cc1` (single isomer, unassigned) showed an IC50 (MCF7) of 0.5 nM and an IC50 (Estrogen receptor beta) of 56 nM.

`Oc1ccc([C@H]2Sc3cc(O)ccc3O[C@H]2c2ccc(OCCN3C[C@H]4CCCC[C@H]4C3)cc2)cc1` gave an IC50 (MCF7) of 7.7 nM, an IC50 (Estrogen receptor) of 1 nM and an IC50 (Estrogen receptor beta) of 33 nM.

Molecule `Oc1ccc([C@H]2Sc3cc(O)ccc3O[C@H]2c2ccc(OCCN3C4CCCC3CC4)cc2)cc1` has an IC50 (MCF7) of 2.2 nM, an IC50 (Estrogen receptor) of 0.6 nM and an IC50 (Estrogen receptor beta) of 51 nM.

`Oc1ccc([C@H]2Sc3cc(O)ccc3O[C@H]2c2ccc(OCCN3C[C@H]4CCC[C@H]4C3)cc2)cc1` was tested, and the IC50 (MCF7) was 1.3 nM, the IC50 (Estrogen receptor) was 0.3 nM and the IC50 (Estrogen receptor beta) was 18 nM.

With `Oc1ccc([C@H]2Sc3cc(O)ccc3O[C@H]2c2ccc(OCCN3CC4(CCC4)C3)cc2)cc1` the IC50 (MCF7) was 0.3 nM, the IC50 (Estrogen receptor) was 0.4 nM and the IC50 (Estrogen receptor beta) was 26 nM.

For `Oc1ccc([C@H]2Sc3cc(O)ccc3O[C@H]2c2ccc(OCCN3C4CCCC3CCC4)cc2)cc1`, the IC50 (MCF7) was 3 nM, the IC50 (Estrogen receptor) was 0.6 nM and the IC50 (Estrogen receptor beta) was 47 nM.
